According to patent US11306102B2, “1,3-di-substituted ketene compound and application thereof” (BEBETTER MED INC., priority 2017, dated 2022):

Legend:
[1] = Pharmacokinetic (PK) experiments after intragastric administration in rats; type: in vivo, SD rats
Experimental: Male SD rats, weighing 250-300 grams, were fasted overnight before testing. The test compound was dissolved in 30% sulfobutyl-R-cyclodextrin (SBE-β-CD) and administered intragastrically at a dose of 20 mg/kg. Blood was collected 15 minutes, 30 minutes, and 1, 2, 3, 4, […] and 24 hours after the administration. About 0.3 ml of blood was collected at each time point, placed in a centrifuge tube containing K2-EDTA (dipotassium ethylenediamine tetraacetate) and centrifuged (2,000 g, 10 minutes, 4° C.) to take the plasma, which was stored in an ultra-low temperature refrigerator at −80° C. A 50 μL plasma sample was mixed with 5 μl of internal standard (IS) and extracted with ethyl acetate. The residue was redissolved in acetonitrile after drying under vacuum. The sample was filtered and injected into an LC-MS/MS for analysis.

[2] = target: T1, PPARγ (Homo sapiens, UniProt P37231); assay: Hela cell/luciferase reporter gene method, PPARγ agonist activity; type: cell-based
T1 construct: expressed in transfected cells; host or cells: Hela cells
T1 sequence (P37231 1-505): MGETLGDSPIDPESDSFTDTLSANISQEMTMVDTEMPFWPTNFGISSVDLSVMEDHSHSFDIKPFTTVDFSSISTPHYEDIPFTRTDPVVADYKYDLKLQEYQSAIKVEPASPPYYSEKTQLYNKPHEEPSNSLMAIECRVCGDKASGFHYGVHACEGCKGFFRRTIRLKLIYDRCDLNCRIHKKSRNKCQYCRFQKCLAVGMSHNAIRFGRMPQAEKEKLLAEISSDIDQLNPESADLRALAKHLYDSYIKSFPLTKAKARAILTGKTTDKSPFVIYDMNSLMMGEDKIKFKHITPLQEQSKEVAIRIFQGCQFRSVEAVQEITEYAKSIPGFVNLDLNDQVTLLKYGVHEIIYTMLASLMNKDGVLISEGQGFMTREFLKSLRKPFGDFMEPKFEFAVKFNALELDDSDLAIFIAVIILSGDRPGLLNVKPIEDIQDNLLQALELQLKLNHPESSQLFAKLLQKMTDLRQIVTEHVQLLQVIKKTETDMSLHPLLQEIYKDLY
In short: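 HeLa cells co-transfected with pPPRE3-TK-firefly luciferase and PPARα, δ or γ expression vector (reporter:receptor 6:1, 8:1, 2:1 respectively). Cells exposed 24 h at 37 °C in 1% FBS medium to 8-point 4-fold dilution series; luciferase luminescence read, EC50 derived.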

[3] = male, SD, rat, plasma, po, intragastric administration 20 mg/kg

Molecule `CSc1ccc2c(C)c(C(=O)/C=C/c3cc(Cl)c(OC(C)(C)C(=O)O)c(Cl)c3)oc2c1` [Compound 103, (E)-2-(2,6-dichloro-4-(3-(3-methyl-6-(methylthio)benzofuran-2-yl)-3-oxoprop-1-en-1-yl)phenoxy)-2-methylpropanoic acid] has an AUC(0-inf) [1, 3] of 50900 ng·h/mL, an AUC(0-t) [1, 3] of 50400 ng·h/mL and a Cmax [1, 3] of 5030 ng/mL. For the same molecule, the Tmax [1, 3] was 4.08 h, the half-life ([1]; male, SD, rat, plasma, po, intragastric administration 20 mg/kg, read-out: Terminal T1/2 (converted)) was 3.28 h and the “absorption after oral administration compared with Elafibranor (in words)” value ([1]; oral administration) was “good absorption”. For the same molecule, the “blood exposure after oral administration compared with Elafibranor (in words)” value ([1]; oral administration) was “highly effective blood exposure”, the “half-life after oral administration compared with Elafibranor (in words)” value ([1]; oral administration) was “significantly prolonged half-life” and the EC50 ([2]; Hela cells, pPPRE3-TK-Luciferase reporter, 24 hrs incubation, read-out: agonistic activity on PPARγ (EC50)) was 788 nM. The “activation of PPARγ compared with Elafibranor (in words)” value ([2]; compared with Elafibranor) was “significantly reduced”.
